Experimental data as given in patent US12285464B2, “Therapeutic targets involved in the progression of nonalcoholic steatohepatitis (NASH)” (The Trustees of Columbia University in the City of New York, priority 2016, dated 2025).
“Also recorded” adds a separate entry of the source.

What was measured:
TAZ [1] = experiment: TAZ silencing with AAV8-shTaz in FPC-fed C57BL/6J mice, FPC diet for 16 weeks; assay type: in vivo; settings: FPC diet 16 weeks
Experimental: (§1) To study TAZ function in NASH development, FPC mice were treated with AAV8-shTaz vs. AAV8-control RNA. […] Mouse body weight, liver:body weight ratio, fasting blood glucose, plasma insulin, and plasma cholesterol were similar in the Taz shRNA and control groups.
The following antibodies were used for immunoblots: GAPDH (#3683), β-actin (#5125), CHOP (#5554), TAZ (#8418), p-eIF2α (#3398), eIF2α (#5324), Lamin A/C (#4777) from Cell Signaling; p-TAZ (sc-17610) and Col1a1 (sc-8784) from Santa Cruz; Ihh (ab39634) from Abcam; and Timp1 (AF980) from R & D. The following antibodies were using for immunostaining of liver: α-SMA (ACTA2) (C6198, F3777) and TAZ (HPA007415) from Sigma; F4/80 (MCA497GA) from AbD Serotec; Ly6g (#127601) from Biolegend; Ly6b (MCA771G) from Bio-Rad; OPN (AF808) from R & D; 4-hydroxynonenal (4-HNE) (AB5605) from Millipore; and HNF4α (sc-6556) from. Santa Cruz. The following plasma assay kits were used in this study: insulin ELISA (#90080) from. Crystal Chem; MCP1 ELISA (#88-7391-22) from eBiosciences; cholesterol (#439-17501) and triglyceride (#465-09791, #461-09891) from Wako; and ALT (#006A-CR) and AST (#004A-CR) from BQ Kits, Inc. AAV8-shRNA targeting murine Taz was made by annealing complementary oligonucleotides (5′-CACCAcagcegaatctcgcaatgaatCTCGAGATTCATTGCGAG ATTCGGCTG-3′) (SEQ ID NO:1), which were then ligated into the pAAV-RSV-GFP-H1 vector, as described previously (Lisowski et al., 2014). The resultant constructs were amplified by the Salk Institute Gene Transfer, Targeting, and Therapeutics Core.
(§2) Male wild-type mice C57BL/6J (#000664, 8-10 weeks/old) and MC4R-negative loxTB Mc4r mice (#006414, 6 weeks/old), referred to here as Mc4r^-/- mice, were obtained from Jackson Laboratory (Bar Harbor, ME) and were allowed to adapt to housing in the Columbia University Medical Center Institute of Comparative Medicine for 1 week prior to random assignment to experimental cohorts. The mice were then fed the following diets for the times indicated in the figure legends: (a) chow diet (Picolab rodent diet 20, #5053); (b) “fast-food” (FF). diet (TestDiet 1810060): high-fat diet with drinking water containing 42 g/L glucose and fructose (55%/45%, w/w); or (c) fructose-palmitate-cholesterol (“FPC”) diet (Teklad, TD.140154): similar to FF diet but with 1.25% added cholesterol and with palmitic acid, anhydrous milk fat, and Primex as the sources of fat and with a ˜60% decrease in vitamin E and a ˜35% decrease in choline compared with typical mouse diets. The detailed composition of these diets appear in Tables 1 and 2. For several experiments, groups of mice were placed on a methionine-choline-deficient diet (Teklad, TD. 90262) for 8 weeks, as described (Dixon et al., 2012). Adeno-associated virus (2×10^11 genome copy/mouse) was delivered by tail vein injection either 1 week prior to diet initiation or after 8 weeks of the FPC diet. Animals were housed in standard cages at 22° C. in a 12-12-h light-dark cycle. All animal experiments were performed in accordance with institutional guidelines and regulations and approved by the Institutional Animal Care and Use Committee at Columbia University.
Fasting blood glucose was measured using a glucose meter (One Touch Ultra, Life-scan) in mice that were fasted for 4-5 h, with free access to water. Complete blood counts were obtained with the FORCYTE Veterinary Hematology Analyzer (Oxford Science, Inc.). Total plasma triglyceride and cholesterol were assayed using a commercially available kit from Wako. For insulin, MCP1, AST, ALT, TC, TG are measured following kit instruction by using plasma.
Formalin-fixed, paraffin-embedded liver sections were stained with hematoxylin and eosin (H&E) and evaluated for severity of NAFLD by a trained hepatopathologist blinded to the clinical diagnosis, αaccording to criteria described by Brunt et al. (Kleiner et al., 2005; Liang et al., 2014). […]

TAZ [2] = experiment: shTaz in the MCD (methionine/choline-deficient) diet model; assay type: in vivo, mice
Source text: Thus, in separate models of NASH, hepatic TAZ silencing improved key liver parameters related to inflammation, fibrosis, and cell death without affecting metabolic parameters or steatosis.
as §2

TAZ [3] = experiment: TAZ silencing after development of steatosis: AAV8-shTaz at week 8 of 16 weeks of FPC diet; assay type: in vivo, mice; settings: shTaz at week 8, read at 16 weeks of FPC diet
Source text: To investigate the role of TAZ specifically in steatosis-to-NASH conversion, mice were first fed the FPC diet for 8 weeks and then injected with AA8-shTaz or control virus, followed by an additional 8 weeks on the diet. Note that 8 weeks of FPC diet caused steatosis but no appreciable inflammation or fibrosis (FIG. 6A).
as §2

TAZ [4] = experiment: TAZ silencing with AAV8-shTaz in FPC-fed hyperphagic Mc4r-/- mice, 16 weeks; assay type: in vivo; settings: FPC diet 16 wks
Experimental: as §1, §2
Formalin-fixed, paraffin-embedded liver sections were stained with hematoxylin and eosin (H&E) and evaluated for severity of NAFLD by a trained hepatopathologist blinded to the clinical diagnosis, αaccording to criteria described by Brunt et al. (Kleiner et al., 2005; Liang et al., 2014). Liver fibrosis was assessed by Picrosirius (Sirius) red (Polysciences, #24901) or by Masson's trichrome staining (Sigma, HT15), with aniline blue-positive areas quantified as a measure of collagen content in the trichrome-stained. sections. TUNEL staining was conducted using a kit from Roche (#12156792910). For immunofluorescence microscsopy, paraffin sections were rehydrated, subjected to antigen retrieval by placing in a pressure cooker for 10 mins in Target Retrieval Solution (Dako, S1699), and then blocked with serum. Sections were labeled with primary antibodies overnight, using a 1:150 dilution except for α-SMA and 4-HNE (1:200) and TAZ (1:400), followed by incubation with a fluorophore-conjugated secondary antibody for 1 h. The stained sections were mounted with DAPI-containing mounting medium (Life Technologies, P36935) and then viewed on an Olympus IX 70 fluorescence microscope. For filipin (Sigma, F9765) staining, frozen sections were fixed in 4% paraformaldehyde for 1 h at room temperature, then rinsed using glycine/PBS and stained 0.25 mg/ml filipin 2 h at room temperature. Fluorescence microscopic images were analyzed using ImageJ software. For immunohistochemistry, the deparaffinization, rehydration, and antigen retrieval processes were the same as with immunofluorescence staining. The slides were treated with 3% hydrogen peroxide for 10 min and then blocked with Serum-Free Protein Block (Dako, X0909) for 30 min. Sections were incubated with OPN, F4/80, or α-SMA primary antibody (1:100) overnight and then developed using DAB substrate kit (Cell Signaling, #8059) for OPN and F4/80,FITC-labeled anti-HRP secondary antibody for α-SMA.
Hydroxyproline liver content was measured as previously described (Bataller et al., 2003; Seki et al., 2009). […]

5′-CACCAcagcegaatctcgcaatgaatCTCGAGATTCATTGCGAG ATTCGGCTG-3′ (DNA CACCACAGCCGAATCTCGCAATGAATCTCGAGATTCATTGCGAGATTCGGCTG; expressed or natural sequence) [AAV8-shTaz, AAV8-shRNA targeting murine Taz; annealed oligonucleotides ligated into the pAAV-RSV-GFP-H1 vector]
4-HNE+ liver cells (TAZ [1]): decrease
TUNEL+ liver cells (TAZ [1]): decrease
inflammatory cell infiltration in liver sections (TAZ [1]): marked reductions
plasma ALT (TAZ [1]): decreased
steatosis (TAZ [1]): not affected
hepatic Ihh protein (TAZ [1]; immunoblot): suppressed
F4/80+ macrophages (TAZ [1]; liver): decreases
expression of mRNAs related to fibrosis (Acta2, Timp1, Des, Col1a1, Col1a2, Col3a1, Vim) (TAZ [1]; liver): robust reduction
expression of mRNAs related to hepatic inflammation (Tnfa, Mcp1, F4/80 (Adgre1)) (TAZ [1]; liver): robust reduction
α-SMA+ cells (TAZ [1]; liver): decreases
silencing of TAZ in liver (immunoblot) (TAZ [1]; vs AAV8-control RNA): robust silencing
Mouse body weight (TAZ [1]; vs control group): similar
fasting blood glucose (TAZ [1]; vs control group): similar
liver:body weight ratio (TAZ [1]; vs control group): similar
plasma cholesterol (TAZ [1]; vs control group): similar
plasma insulin (TAZ [1]; vs control group): similar
fibrosis endpoints in liver sections (TAZ [1]; aniline blue, Sirius red): marked reductions
hepatic fibrosis (TAZ [2]): decreased
hepatic inflammation (TAZ [2]): decreased
macrophages in the liver (TAZ [2]): reduced
steatosis (TAZ [2]): without impacting
α-SMA+ cells in the liver (TAZ [2]): reduced
inflammatory and fibrotic gene expression (TAZ [2]; liver): reduced
F4/80+ macrophages (TAZ [3]): marked reductions
fibrosis endpoints (aniline blue- and Sirius red-positive areas) (TAZ [3]): marked reductions; also recorded: reduced
inflammatory cells (TAZ [3]): marked reductions; also recorded: reduced
inflammatory- and fibrosis-related genes (Tnfa, Mcp1, Tgfb1, Acta2 mRNA) (TAZ [3]): marked reductions; also recorded: reduced
plasma ALT (TAZ [3]): marked reductions; also recorded: reduced
α-SMA+ cells (TAZ [3]): marked reductions
hydroxyproline content of liver (TAZ [4]): lower; also recorded: reduced
liver inflammation (hepatic inflammatory cells) (TAZ [4]): decreased; also recorded: reduced
plasma ALT (TAZ [4]): reduced
staining for Sirius red (TAZ [4]; liver): decreased staining
staining for aniline blue (TAZ [4]; liver): decreased staining
staining for α-SMA (TAZ [4]; liver): decreased staining
